Like-named read-outs stand apart in the source and are kept apart here. Where a SMILES comes first, the peptide text is derived from it.
Assays:
siRNA = test: Fluorescence titration, VEPEP-9/cargo binding; conditions: cargo siRNA
Experimental: (§1) Fluorescence experiments were performed on a PTI spectrofluorimeter at 25° C. in a NaCl 154 mM buffer. Intrinsic Trp-fluorescence of VEPEP-9 was excited at 290 nm and emission spectrum was recorded between 310 and 400 nm, with a spectral band-pass of 2 and 8 nm for excitation and emission, respectively. FITC- or CY5-fluorescence of labelled-peptide or Oligonucleotide were excited at 492 nm and emission recorded between 500 and 580 nm. For VEPEP-9/peptide interaction, 0.5 μM of FITC-labelled peptide was titrated by increasing concentrations of VEPEP-9. For VEPEP-9/oligonucleotide interaction, 200 nM of FITC or CY5-labelled oligodeoxynucleotide (ODN) was titrated by increasing concentrations of VEPEP-9. All measurements were corrected for the dilution and curve fitting were performed by using Grafit software (Erithacus).
(§2) VEPEP-9 peptide form stable complexes with peptides and ODN. The binding of cargos to VEPEP-9 was monitored by fluorescence spectroscopy using the both intrinsic Trp group of VEPEP-9 (3 to 5 Trp-residues) and extrinsic fluorescently labelled cargoes (using Cy3, Cy5 or FITC). Curve fitting reveal that VEPEP-9 strongly binds the different cargoes with dissociation constant in the nanomolar range (Tables 1 and 2 and FIG. 2).
(§3) VEPEP-9 peptides form stable particles with different cargoes including peptide, siRNA, PNA and small aromatic (FIG. 2). The dissociation constant for peptide, siRNA, PNA and small hydrophobic molecule ranges between 10-100 nM, 5-50 nM, 5-50 nM and 0.02 to 0.2 μM, respectively, depending on the nature of the dyes and of the cargoes.

PNA (15 mer -PNA) = test: Fluorescence titration, VEPEP-9/cargo binding; conditions: cargo PNA (15 mer)
Experimental: as §1, §2, §3

[1] = Fluorescence titration, VEPEP-9/cargo binding; conditions: cargo SHM
Experimental: as §1, §2, §3

Peptide (C4) = test: Fluorescence titration, VEPEP-9/cargo binding; conditions: cargo peptide (C4)
Experimental: as §1, §2, §3

[2] = Fluorescence titration, VEPEP-9/SHM binding
Experimental: as §1
Binding of small molecule cargoes has been investigated in detailed depending on the nature of the SHM. Several hydrophobic molecules have been used (Daunomycin, Paclitaxel, doxorubicin, porphyrin), as well as charged molecules (nucleotide, nucleoside and fluorescent dyes).

[3] = test system: non-transformed HS68 fibroblasts; test: Cell proliferation after VEPEP-9 mediated delivery; format: cell-based, Human
Experimental: (§4) Adherent HS68 fibroblasts, HeLa, PC3, MCF-7, SCK3-Her2, PBMC cell lines (from American Type Culture Collection (ATCC)) were cultured in Dulbecco's Modified Eagle's Medium supplemented with 2 mM glutamine, 1% antibiotics (streptomycin 10,000 μg/ml, penicillin, 10,000 IU/ml) and 10% (w/v) foetal calf serum (FCS), at 37° C. in a humidified atmosphere containing 5% CO2. Stock solutions of VEPEP-9/peptide particles were prepared by complexing 1 μM peptide with VEPEP-9 peptides at a molar ratio of 1/20 for 30 min at 37° C. Lower concentrations of VEPEP-9-carrier/peptide (from 500 nM to 1 μM) were obtained by serial dilution of the stock complexes in PBS, in order to preserve the same VEPEP-9-carrier/peptide ratio. Stock solutions of VEPEP-9/siRNA particles were prepared by complexing 100 nM siRNA with VEPEP-9 peptides at a molar ratio of 1/20 for 30 min at 37° C. Lower concentrations of VEPEP-9/siRNA (from 20 nM to 0.125 nM) were obtained by serial dilution of the stock complexes in PBS, in order to preserve the same VEPEP-9/siRNA ratio. […] For cdk2 derived peptides, cell proliferation was monitored after 24 and 48 hrs. For siRNA targeting Cyclin B1, Cyclin B1 mRNA level was determined 24 hrs following transduction, using Quantigen (Pommies Inc.). […]

cultured cells = test: Cell cycle progression / cyclin B1 levels in cultured cells; format: cell-based; conditions: for concentration at which 4 N accumulation was optimally obtained: VEPEP-9 mediated delivery
Hela [4] = conditions: read-out: IC50, block of proliferation, siRNA delivered with VEPEP-9b and VEPEP-9e
Experimental: (§6) Adherent HS68 fibroblasts, HeLa, PC3, MCF-7, SCK3-Her2, PBMC cell lines (from American Type Culture Collection (ATCC)) were cultured in Dulbecco's Modified Eagle's Medium supplemented with 2 mM glutamine, 1% antibiotics (streptomycin 10,000 μg/ml, penicillin, 10,000 IU/ml) and 10% (w/v) foetal calf serum (FCS), at 37° C. in a humidified atmosphere containing 5% CO2. […] Stock solutions of VEPEP-9/siRNA particles were prepared by complexing 100 nM siRNA with VEPEP-9 peptides at a molar ratio of 1/20 for 30 min at 37° C. Lower concentrations of VEPEP-9/siRNA (from 20 nM to 0.125 nM) were obtained by serial dilution of the stock complexes in PBS, in order to preserve the same VEPEP-9/siRNA ratio. 150,000 cells seeded in a 35 mm dish the day prior transfection, were grown to 60% confluence and overlaid with 200 μl of preformed complexes, incubated for 3-5 min, then 400 μl of DMEM were added. After 30 min. incubation at 37° C., 1 ml of fresh DMEM containing 16% foetal calf serum (FCS) was added in order to reach a final FCS concentration of 10%, without removing the overlay of VEPEP-9/cargo complexes. Cells were returned to the incubator for 24 hrs. For cdk2 derived peptides, cell proliferation was monitored after 24 and 48 hrs. For siRNA targeting Cyclin B1, Cyclin B1 mRNA level was determined 24 hrs following transduction, using Quantigen (Pommies Inc.). […]

[5] = test system: PC3, A549, or SCK-3-HEK2-xenografted mice; test: Tumour growth and cyclin B1 mRNA, siRNA controls; format: in vivo
Experimental: (§5) For siRNA treatment: Two to three weeks after tumour implant, when tumour size reached about 100 mm^3, animals were treated by intratumoral or intravenous injection, every 3 days, with a solution of 0.1 ml of either free Cyc-B1 siRNA (50 or 100 μg), control siRNA Cyc-B3 or Cyc-B1 siRNA (1, 5, 10 μg) complexed with NANOPEP-9 at a 1/20 molar ratio.
Athymic female nude mice (6-8 weeks of age) were subcutaneously inoculated into the flank with 1×10^6 PC3 (prostate cancer), A549 (lung cancer) or SCK-3-HEK2 (ovarian cancer) cells in 100 μl PBS. Two to three weeks after tumour implant, when tumour size reached about 100 mm^3, animals were treated by intratumoral or intravenous injection, every 3 days, with a solution of 0.1 ml of either free Cyc-B1 siRNA (50 or 100 μg), control siRNA Cyc-B3 or Cyc-B1 siRNA (5, 10 μg) complexed with NANOPEP-9b or NANOPEP-9e particles. The “core” shell of the particles was formed using VEVEP-9b or VEPEP-9e peptide at a molar ratio of 20/1 with a siRNA targeting cycline B1. siRNA stock solutions are in 50 mM Tris, 0.5 mM EDTA buffer or in RNase free water. VEPEP-9 peptides were solubilised in water and stock solution of peptide was sonicated for 10 min in a water bath before complex formation. Then VEPEP-9/siRNA complexes were formed by adding siRNA into the peptide solution and incubating at 37° C. for 20-30 minutes to allow the carrier peptide/siRNA complexes to form. NANOPEP-9 particles contain a VEPEP-9/siRNA “core shell” surrounded by additional VEPEP-9 at a 1/20 molar ratio.
The potential of NANOPEP-9b or NANOPEP-9e to deliver cyclin B1 siRNA in vivo was evaluated on PC3, A549, or SCK-3-HEK2-xenografted mice (FIGS. 13A-13B). The effect of local intratumoral administration of NANOPEP-9/siRNA particles (molar ratio 20/1) on the growth of established subcutaneous tumours was evaluated. At day 50, tumor sizes in the control cohort, injected with PBS increased by about 3 to 5 fold. […] At day 48, it was validated that the Cyc-B1 siRNA mediated inhibition of tumour growth was directly associated with a decrease in the level of cyclin B1 mRNA.

MCF7 [6] = conditions: read-out: IC50, accumulation of cells with a 4 N content (G2 arrest), Cyclin B1 siRNA delivered with VEPEP-9
MCF7 [7] = conditions: read-out: IC50, block of proliferation, siRNA delivered with VEPEP-9b and VEPEP-9e
Experimental: as §6

PC3 tumor = test: Tumour size, intravenous Cyc B1 siRNA in NANOPEP-9; format: in vivo, mice; conditions: intravenous every three days, day 50
Experimental: as §5
Athymic female nude mice (6-8 weeks of age) were subcutaneously inoculated into the flank with 1×10^6 PC3 (prostate cancer), A549 (lung cancer) or SCK-3-HEK2 (ovarian cancer) cells in 100 μl PBS. Two to three weeks after tumour implant, when tumour size reached about 100 mm^3, animals were treated by intratumoral or intravenous injection, every 3 days, with a solution of 0.1 ml of either free Cyc-B1 siRNA (50 or 100 μg), control siRNA Cyc-B3 or Cyc-B1 siRNA (5, 10 μg) complexed with NANOPEP-9b or NANOPEP-9e particles. The “core” shell of the particles was formed using VEVEP-9b or VEPEP-9e peptide at a molar ratio of 20/1 with a siRNA targeting cycline B1. siRNA stock solutions are in 50 mM Tris, 0.5 mM EDTA buffer or in RNase free water. VEPEP-9 peptides were solubilised in water and stock solution of peptide was sonicated for 10 min in a water bath before complex formation. […]

Hela [8] = conditions: read-out: IC50, accumulation of cells with a 4 N content (G2 arrest), Cyclin B1 siRNA delivered with VEPEP-9
[9] = test system: Hela, MCF7, HEK-2 and U2OS cells; test: Cell proliferation after VEPEP-9 mediated delivery; format: cell-based
Experimental: as §4

HT29 tumor = test: Tumour size, intravenous Cyc B1 siRNA in NANOPEP-9; format: in vivo, mice; conditions: intravenous every three days, day 50
Experimental: NANOPEP-9b and NANOPEP-9e particles were used for systemic intravenous administration. Five micrograms (0.25 mg/kg) and 10 μg (0.5 mg/kg) of Cyc B1 siRNA in NANOPEP-9b and NANOPEP-9e particles were injected intravenously every three days into mice bearing xenografted tumors.

HEK-2 = test: G2 arrest (accumulation of cells with 4 N content); format: cell-based; conditions: Cyclin B1 siRNA delivered with VEPEP-9
MCF7 [10] = test: Inhibition of cancer cell proliferation by delivered drugs; format: cell-based; conditions: Homo sapiens
SKB3 = test: as above; format: cell-based
[11] = drug complexed with VEPEP-9a at molar ratio 1/20, read-out: VEPEP-9a IC50
[12] = drug complexed with VEPEP-9b at molar ratio 1/20, read-out: VEPEP-9b IC50
[13] = drug complexed with VEPEP-9f at molar ratio 1/20, read-out: VEPEP-9f IC50
[14] = drug complexed with VEPEP-9d at molar ratio 1/20, read-out: VEPEP-9d IC50
[15] = free drug, read-out: Free drug IC50

Row | Binding (siRNA) | Kd (siRNA) | Binding (PNA (15 mer -PNA)) | Kd (PNA (15 mer -PNA)) | Binding [1] | Kd [1] | Binding (Peptide (C4)) | Binding ([2]; cargo AZT) | Kd ([2]; cargo AZT) | Binding ([2]; cargo Doxorubicin) | Kd ([2]; cargo Doxorubicin) | Binding ([2]; cargo FAM-guanosine) | Kd ([2]; cargo FAM-guanosine) | Binding ([2]; cargo porphyrin) | Kd ([2]; cargo porphyrin) | Molecule | reduction of proliferation [3] | concentration at which 4 N accumulation was optimally obtained (cultured cells) | concentration sufficient to block proliferation [9] | also measured
1 | yes | > 0.2 µM | Yes | > 0.05 µM | Yes | 0.02 to 0.1 µM | yes | yes | 0.02 µM | yes | 0.09 µM | yes | 0.4 µM | yes | 0.25 µM | X1WWRWWASWARSWWR [VEPEP-9d, X1 is beta-A or S] | – | – | – | –
2 | – | – | – | – | – | – | – | – | – | – | – | – | – | – | – | siRNA: siRNA targeting Cyclin B1; sense 5′GGCGAAGAUCAACAUGGCATT3′, antisense 5′UGCCAUGUUGAUCUUCGCCTT3′ (chemistry not given here) | 10% | 20 nM | 20 nM | IC50 (Hela [4]): 0.0031 ± 0.0002 µM; effect on tumour growth ([5]; 100 μg naked siRNA (intratumoral or intravenous) or carrier alone): no significant effect; level of cyclin B1 mRNA in tumour ([5]; day 48): decrease; IC50 (MCF7 [6]): 0.0019 ± 0.0009 µM; IC50 (MCF7 [7]): 0.0016 ± 0.0005 µM; inhibition (reduction in tumor size) (PC3 tumor; 5 μg siRNA in NANOPEP-9b and NANOPEP-9e particles): 65%; inhibition (reduction in tumor size) (PC3 tumor; 10 μg siRNA in NANOPEP-9b and NANOPEP-9e particles): 90%; IC50 (Hela [8]): 0.0024 ± 0.0008 µM; inhibition (reduction in tumor size) (HT29 tumor; 5 μg siRNA): 35%; inhibition (reduction in tumor size) (HT29 tumor; 10 μg siRNA): 70%; IC50 (HEK-2): 0.0012 ± 0.0006 µM
3 | – | – | – | – | – | – | – | – | – | – | – | – | – | – | – | Cyc-B3: mismatch cyclin B1 siRNA harbouring two mutations; sense 5′GGUGAAGAUCAGCAUGGCATT3′ (antisense UGCCAUGUCGAUCUUCACCTT; chemistry not given here) | – | – | – | effect on cyclin B1 levels and cell cycle progression (cultured cells; 200 nM, complexed with VEPEP-9 at a 20/1 ratio): no effect; inhibition of tumour growth ([5]; complexed with NANOPEP-9e, 0.5 mg/kg): unable to inhibit tumour growth
4 | – | – | – | – | – | – | – | – | – | – | – | – | – | – | – | CC(=O)O[C@H]1C(=O)[C@@]2(C)[C@H]([C@H](OC(=O)c3ccccc3)[C@]3(O)C[C@H](OC(=O)[C@H](O)[C@@H](NC(=O)c4ccccc4)c4ccccc4)C(C)=C1C3(C)C)[C@]1(OC(C)=O)CO[C@@H]1C[C@@H]2O [Taxol, taxol] | – | – | – | IC50 (MCF7 [10]; [11]): 0.8 µM; IC50 (MCF7 [10]; [12]): 0.12 µM; IC50 (MCF7 [10]; [13]): 0.8 µM; IC50 (MCF7 [10]; [14]): 0.5 µM; IC50 (MCF7 [10]; [15]): 7 µM; IC50 (SKB3; [11]): 0.7 µM; IC50 (SKB3; [12]): 0.65 µM; IC50 (SKB3; [13]): 0.9 µM; IC50 (SKB3; [14]): 0.7 µM; IC50 (SKB3; [15]): 10 µM
5 | yes | 0.005 to 0.05 µM | Yes | 0.005 to 0.05 µM | Yes | 0.02 to 0.1 µM | yes | yes | 0.09 µM | yes | 0.05 µM | yes | 1.1 µM | yes | 0.2 µM | X1WWGSWATPRRRWWR [VEPEP-9e, X1 is beta-A or S] | – | – | – | effect on cyclin B1 levels and cell cycle progression (cultured cells; carrier alone (100 μM)): no effect
6 | – | – | – | – | – | – | – | – | – | – | – | – | – | – | – | CSCC[C@H](NC(=O)[C@H](CCCNC(=N)N)NC(=O)[C@@H](NC(=O)[C@H](CCC(N)=O)NC(=O)[C@H](CCCCN)NC(=O)[C@@H](N)CCCCN)C(C)C)C(=O)N[C@@H](C)C(=O)N[C@@H](Cc1c[nH]cn1)C(=O)N[C@@H](CC(C)C)C(=O)N[C@H](C(=O)N[C@@H](CC(C)C)C(=O)N[C@H](C(=O)O)[C@@H](C)O)C(C)C [C4, KKQVRMAHLVLT] (H-KKQVRMAHLVLT-OH; N-terminus and C-terminus assumed) | 10% | 200 nM | 200 nM | –

From US10421784B2, “Cell penetrating peptides for intracellular delivery of molecules” (AADIGEN, LLC, priority 2012, dated 2019)
